In patent US12358918B2, “Aryl hydrocarbon receptor (AHR) activator compounds as cancer therapeutics” (THE BROAD INSTITUTE, INC., priority 2018, dated 2025):
“Also recorded” adds a separate entry of the source.

Assays:
[1] = tested on: MDA-MB-231 breast cancer cell lines; assay: cytotoxicity, control cells vs cells overexpressing CYP1A1; format: cell-based
Text: The dependence of each compound's cytotoxic effects upon CYP1A1 was also examined, via screening of MDA-MB-231 breast cancer cell lines for cytotoxic response. The CYP1A1-dependence of the cytotoxic response of to each tested compound was specifically determined by comparing the cytotoxicity of each compound administered to control cells with that of the compound administered to corresponding cells that overexpressed CYP1A1. […]

[2] = biological target: T1, recombinant human Adenosine A1 (FAST-001C) receptor (Homo sapiens, UniProt P30542); assay: cAMP HTRF assay, Adenosine A1 receptor, antagonist mode; set-up: inhibition: dose or concentration left out as unconfirmed
T1 sequence (P30542 1-326): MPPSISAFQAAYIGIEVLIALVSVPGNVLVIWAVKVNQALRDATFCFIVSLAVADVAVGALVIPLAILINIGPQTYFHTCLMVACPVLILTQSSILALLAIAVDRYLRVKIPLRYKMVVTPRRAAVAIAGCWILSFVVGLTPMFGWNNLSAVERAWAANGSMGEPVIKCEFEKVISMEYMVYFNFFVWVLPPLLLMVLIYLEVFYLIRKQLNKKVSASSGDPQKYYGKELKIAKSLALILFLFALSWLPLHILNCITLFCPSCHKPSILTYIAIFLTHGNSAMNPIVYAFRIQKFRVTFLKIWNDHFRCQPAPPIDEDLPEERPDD

[3] = tested on: 578 cancer cell lines; assay: PRISM multiplexed cellular viability screening; format: cell-based; conditions: relation to FOXA1 / FOXA1 target expression across cell lines
Protocol: The instant discovery was made using large-scale multiplex profiling of existing drugs against 578 cancer cell lines, employing a PRISM multiplexed cellular viability assay.
Parental cell lines were obtained from the Cancer Cell Line Encyclopedia (CCLE) project (1). PRISM cell line barcoding, pooling, and screening was performed as previously described with several improvements to the original method (2). First, the lentiviral vector was modified to encode the unique barcode identifier at the end of the puromycin resistance gene. This enables barcodes to be detected using a variant of the mRNA capture and Luminex detection method developed for the L1000 gene expression assay (3). Second, a set of ten inert barcodes were spiked-in to each well of each plate after cell lysis to control for variation in PCR amplification as detailed below.
Luminex technology produced .Ixb files containing data for each Luminex bead observed during detection. These .Ixb files were processed to compute Median Fluorescence Intensity (MFI) values, calculated as the median of the values obtained for all beads corresponding to a single PRISM barcode.
MFI values were log-transformed (log MFI) and used to perform basic quality control. To detect probable screening artifacts, log MFI values were centered to the median log MFI for each cell line on each plate in order to put the measurements from each cell line on the same scale. For each well on each plate, the median of these centered values was then standardized according to the global median and global MAD across all plate wells in the same position. Data from wells with a standardized score of greater than 5 or less than −5 were excluded from all further processing steps.
For each cell line on each plate, the distribution of MFI values observed for the DMSO-treated negative controls was compared to that of the positive controls using a robust form of the Strictly Standardized Mean Difference (SSMD*)′. Specifically, SSMD* was calculated as: […]
Data corresponding to SSMD values less than 2 were removed before calculating cell viability.
The data in the instant disclosure were produced according to two different screening protocols. In the PR500 protocol, ten inert barcodes were spiked-in to each well of each plate after cell lysis. For data produced using the PR500 protocol, normalized MFI (nMFI) values were computed by taking the ratio of each MFI value against the median of the inert barcodes within each well. […]
Cell viability was calculated as the ratio of nMFI to the median of the nMFI from the DMSO-treated negative controls for each cell line on each plate. […] The final viability values were calculated as the median of the batch-corrected cell viabilities from biological replicates for each cell line, compound and dose. […]

[4] = tested on: MDA-MB-468 and ZR51 breast cancer and JHH7 liver cancer cell lines

SMILES: Nc1nc2ccc(Cl)cc2c2nc(-c3ccco3)nn12 [CGS-15943, reference compound]
- CYP1A1-dependence of the cytotoxic response [1]: CYP1A1-dependent cytotoxic
- inhibition ([2]; CHO-K1, read-out: % Inhibition Average at maximal concentration): 106%
- Hill Coefficient ([2]; antagonist mode dose-response fit): 0.92
- cell killing profile in PRISM [3]: cell killing profile specific for such FOXA1-dependent cancer cell lines; also recorded: selective killing of FOXA1-high cancer cell lines
- AHR-dependence of the cytotoxic response [4]: dependence upon AHR
